These results are taken from PMC10527387, “The Potential Mechanisms behind Loperamide-Induced Cardiac Arrhythmias Associated with Human Abuse and Extreme Overdose” (Biomolecules, 2023).

Usually IC50 stands for the concentration needed to halve the response being measured. A lower IC50 goes with higher potency.

SMILES strings stand for the structures.

For experiment [1], the target named is T1, Cav1.2 (ICa, ICaL) (Homo sapiens, UniProt Q13936).
T1 construct: gene CACNA1C
The experiment in a line: cell-based.

Experiment [2] deals with T2, Nav1.5 (INa) (Homo sapiens, UniProt Q14524).
T2 construct: gene SCN5A
The experiment in a line: cell-based.

T2 sequence (Q14524 whole entry): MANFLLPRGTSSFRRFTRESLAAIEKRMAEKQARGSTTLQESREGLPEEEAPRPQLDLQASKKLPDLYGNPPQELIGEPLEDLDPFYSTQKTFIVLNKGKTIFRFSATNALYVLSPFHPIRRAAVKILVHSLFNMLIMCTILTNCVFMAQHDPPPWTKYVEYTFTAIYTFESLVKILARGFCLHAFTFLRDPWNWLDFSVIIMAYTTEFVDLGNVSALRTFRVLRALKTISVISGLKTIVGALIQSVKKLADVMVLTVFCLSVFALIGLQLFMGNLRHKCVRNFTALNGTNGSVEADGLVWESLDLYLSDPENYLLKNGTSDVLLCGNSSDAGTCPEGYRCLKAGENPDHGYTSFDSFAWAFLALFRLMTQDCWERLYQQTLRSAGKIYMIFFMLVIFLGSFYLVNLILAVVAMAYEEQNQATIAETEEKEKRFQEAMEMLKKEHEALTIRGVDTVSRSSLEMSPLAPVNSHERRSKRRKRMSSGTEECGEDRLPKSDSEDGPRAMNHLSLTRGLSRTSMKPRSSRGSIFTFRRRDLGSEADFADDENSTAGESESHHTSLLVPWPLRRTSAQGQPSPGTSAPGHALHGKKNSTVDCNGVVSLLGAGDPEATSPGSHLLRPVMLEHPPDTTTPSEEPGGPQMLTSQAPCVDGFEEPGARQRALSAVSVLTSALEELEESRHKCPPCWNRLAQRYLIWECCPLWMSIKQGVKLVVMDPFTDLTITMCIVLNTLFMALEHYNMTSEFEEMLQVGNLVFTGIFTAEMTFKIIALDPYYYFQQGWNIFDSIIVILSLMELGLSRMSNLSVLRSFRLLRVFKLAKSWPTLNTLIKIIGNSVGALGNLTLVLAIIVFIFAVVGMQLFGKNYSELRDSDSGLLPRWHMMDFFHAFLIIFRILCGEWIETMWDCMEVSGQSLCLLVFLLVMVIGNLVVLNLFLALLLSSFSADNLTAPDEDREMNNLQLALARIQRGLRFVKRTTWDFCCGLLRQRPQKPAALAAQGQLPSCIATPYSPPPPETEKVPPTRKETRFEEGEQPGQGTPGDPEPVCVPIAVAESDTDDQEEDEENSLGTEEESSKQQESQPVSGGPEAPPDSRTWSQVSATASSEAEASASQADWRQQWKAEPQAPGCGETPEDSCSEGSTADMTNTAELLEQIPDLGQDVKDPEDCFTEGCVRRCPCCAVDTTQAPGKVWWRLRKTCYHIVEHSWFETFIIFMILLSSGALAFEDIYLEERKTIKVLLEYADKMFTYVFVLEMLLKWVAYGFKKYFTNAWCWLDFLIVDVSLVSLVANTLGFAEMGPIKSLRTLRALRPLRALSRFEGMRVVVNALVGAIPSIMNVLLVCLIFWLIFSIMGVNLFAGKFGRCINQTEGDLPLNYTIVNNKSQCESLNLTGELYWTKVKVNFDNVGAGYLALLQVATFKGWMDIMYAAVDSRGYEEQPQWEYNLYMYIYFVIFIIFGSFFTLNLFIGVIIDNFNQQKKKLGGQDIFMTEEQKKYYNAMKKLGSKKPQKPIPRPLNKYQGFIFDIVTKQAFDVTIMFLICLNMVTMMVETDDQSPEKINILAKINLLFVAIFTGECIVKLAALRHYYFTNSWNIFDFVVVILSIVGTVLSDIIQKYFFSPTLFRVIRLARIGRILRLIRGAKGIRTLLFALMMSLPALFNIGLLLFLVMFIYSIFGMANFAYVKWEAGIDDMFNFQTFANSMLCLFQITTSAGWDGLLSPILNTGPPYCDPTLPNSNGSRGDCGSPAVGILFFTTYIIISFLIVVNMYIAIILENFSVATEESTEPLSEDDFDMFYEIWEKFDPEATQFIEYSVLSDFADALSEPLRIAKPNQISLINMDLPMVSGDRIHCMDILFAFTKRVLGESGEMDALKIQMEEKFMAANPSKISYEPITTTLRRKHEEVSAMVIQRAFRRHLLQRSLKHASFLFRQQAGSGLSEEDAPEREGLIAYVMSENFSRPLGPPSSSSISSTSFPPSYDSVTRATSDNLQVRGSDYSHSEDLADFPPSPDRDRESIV
T1 sequence (Q13936 whole entry): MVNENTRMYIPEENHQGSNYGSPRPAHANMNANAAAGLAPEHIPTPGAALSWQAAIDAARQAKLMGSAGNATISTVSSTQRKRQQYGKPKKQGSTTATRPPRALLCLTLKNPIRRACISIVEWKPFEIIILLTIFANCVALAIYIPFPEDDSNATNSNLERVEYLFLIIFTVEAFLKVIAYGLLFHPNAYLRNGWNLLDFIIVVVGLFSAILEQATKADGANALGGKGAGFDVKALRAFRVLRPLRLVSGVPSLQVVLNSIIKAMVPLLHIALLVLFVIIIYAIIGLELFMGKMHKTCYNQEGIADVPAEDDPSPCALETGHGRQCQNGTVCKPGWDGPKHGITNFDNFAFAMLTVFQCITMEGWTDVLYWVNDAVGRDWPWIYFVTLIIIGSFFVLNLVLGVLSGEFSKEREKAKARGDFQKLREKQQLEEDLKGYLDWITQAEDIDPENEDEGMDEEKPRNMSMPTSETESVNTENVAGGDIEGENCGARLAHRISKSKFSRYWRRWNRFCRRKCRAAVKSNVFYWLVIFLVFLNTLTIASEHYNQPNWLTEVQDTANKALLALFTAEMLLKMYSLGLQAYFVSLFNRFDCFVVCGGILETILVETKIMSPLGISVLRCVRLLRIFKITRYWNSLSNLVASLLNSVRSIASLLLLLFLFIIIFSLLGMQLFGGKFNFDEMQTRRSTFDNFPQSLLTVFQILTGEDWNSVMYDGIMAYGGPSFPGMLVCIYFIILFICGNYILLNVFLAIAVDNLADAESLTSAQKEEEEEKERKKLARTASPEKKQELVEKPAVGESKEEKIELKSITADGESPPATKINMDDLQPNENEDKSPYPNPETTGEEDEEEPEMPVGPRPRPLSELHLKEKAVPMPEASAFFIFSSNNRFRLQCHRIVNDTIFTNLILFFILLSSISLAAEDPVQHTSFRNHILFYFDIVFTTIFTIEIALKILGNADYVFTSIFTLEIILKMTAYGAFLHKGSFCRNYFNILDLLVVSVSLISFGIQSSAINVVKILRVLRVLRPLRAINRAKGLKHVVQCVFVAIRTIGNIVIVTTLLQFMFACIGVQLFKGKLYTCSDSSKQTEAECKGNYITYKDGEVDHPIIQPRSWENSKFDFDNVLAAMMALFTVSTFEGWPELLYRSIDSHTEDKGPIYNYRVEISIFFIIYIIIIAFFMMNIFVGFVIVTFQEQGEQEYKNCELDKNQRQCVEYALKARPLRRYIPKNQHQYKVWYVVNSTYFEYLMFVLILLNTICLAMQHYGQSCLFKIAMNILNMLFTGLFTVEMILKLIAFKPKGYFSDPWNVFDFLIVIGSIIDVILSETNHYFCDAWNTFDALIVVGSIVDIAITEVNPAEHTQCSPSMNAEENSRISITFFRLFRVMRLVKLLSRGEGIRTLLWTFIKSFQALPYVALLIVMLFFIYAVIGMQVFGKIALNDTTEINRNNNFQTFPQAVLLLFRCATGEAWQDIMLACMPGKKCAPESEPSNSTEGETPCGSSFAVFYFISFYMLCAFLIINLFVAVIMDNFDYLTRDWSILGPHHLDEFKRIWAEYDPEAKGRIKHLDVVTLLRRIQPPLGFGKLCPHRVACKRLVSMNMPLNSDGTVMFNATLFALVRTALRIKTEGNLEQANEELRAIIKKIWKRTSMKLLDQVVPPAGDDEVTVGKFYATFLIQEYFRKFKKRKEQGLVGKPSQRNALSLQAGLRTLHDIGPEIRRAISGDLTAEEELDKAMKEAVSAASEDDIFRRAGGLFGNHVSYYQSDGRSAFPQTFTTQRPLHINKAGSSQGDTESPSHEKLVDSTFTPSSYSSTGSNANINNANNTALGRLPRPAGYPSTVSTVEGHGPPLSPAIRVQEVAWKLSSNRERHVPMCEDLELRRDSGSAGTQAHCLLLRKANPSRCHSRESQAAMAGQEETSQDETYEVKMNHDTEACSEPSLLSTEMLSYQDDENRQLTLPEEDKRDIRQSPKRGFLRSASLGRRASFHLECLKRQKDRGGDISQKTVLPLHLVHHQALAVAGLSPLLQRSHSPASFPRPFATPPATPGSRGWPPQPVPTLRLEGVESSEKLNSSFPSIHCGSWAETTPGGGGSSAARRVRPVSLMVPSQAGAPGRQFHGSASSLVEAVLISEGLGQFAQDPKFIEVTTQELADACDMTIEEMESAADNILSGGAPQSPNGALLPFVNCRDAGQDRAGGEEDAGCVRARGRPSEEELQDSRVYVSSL

As to `CN(C)C(=O)C(CCN1CCC(O)(c2ccc(Cl)cc2)CC1)(c1ccccc1)c1ccccc1` [Loperamide], the figures for the IC50 in experiment [1] and in experiment [2] were 4090 nM and 526 nM, respectively.
